Measurements reported in patent US20090088380A1, “GHRH ANALOGS AND THERAPEUTIC USES THEREOF” (priority 2007, published 2009).
Non-standard residues stand in square brackets, D forms with d. Residues, ends and D or L forms follow the SMILES beside them.

Tested on: malnourished subjects with CKD
Assay: Phase II CKD: 24-h urinary electrolytes
Type: in vivo, human
Settings: for Calcium excretion: mean (SD) / Calcium/Creatinine ratio: median / EER Calcium: mean (SD) / EER Chloride: mean (SD) / EER Phosphate: mean (SD) / EER Potassium: mean (SD) / EER Sodium: mean (SD) / EFER Calcium: mean (SD) / EFER Chloride: mean (SD) / EFER Phosphate: mean (SD) / EFER Potassium: mean (SD) / EFER Sodium: mean (SD) / Fractional Pi reabsorption rate Pi/GFR: mean (SD) / Sodium excretion: mean (SD): ITT population
Experimental: Subjects collected 24-hour urine samples at screening, baseline (Days 0 to 1) and Days 28 to 29. All of the samples were analysed for creatinine and urea clearance (mL/min). The samples collected at baseline and on Day 28 were also analysed for proteinuria (Coumassie method), PNA, sodium, potassium, chloride, calcium and phosphate. GFR was calculated using the Cockcroft-Gault formula: Electrolyte excretion rates were calculated as follows: ? [formula] Electrolyte fractional excretion rates were calculated as follows: [formula]

[1] = GHRH vs placebo, changes from baseline to Day 28
[2] = GHRH vs placebo, ANCOVA, assuming log-normal distribution

CC[C@H](C)[C@H](NC(=O)[C@H](C)NC(=O)[C@H](CC(=O)O)NC(=O)[C@@H](C)NC(=O)[C@@H](N)Cc1ccc(O)cc1)C(=O)N[C@@H](Cc1ccccc1)C(=O)N[C@H](C(=O)N[C@@H](CC(N)=O)C(=O)N[C@@H](CO)C(=O)N[C@H](Cc1ccc(O)cc1)C(=O)N[C@@H](CCCNC(=N)N)C(=O)N[C@@H](CCCCN)C(=O)N[C@H](C(=O)N[C@@H](CC(C)C)C(=O)N[C@H](C)C(=O)N[C@@H](CCC(N)=O)C(=O)N[C@@H](CC(C)C)C(=O)N[C@@H](CO)C(=O)N[C@@H](C)C(=O)N[C@@H](CCCNC(=N)N)C(=O)N[C@@H](CCCCN)C(=O)N[C@@H](CCCCN)C(=O)N[C@@H](CC(C)C)C(=O)N[C@@H](CCC(N)=O)C(=O)N[C@@H](CC(=O)O)C(=O)N[C@H](C(=O)N[C@@H](CCSC)C(=O)N[C@@H](CO)C(=O)N[C@@H](CCCNC(=N)N)C(N)=O)[C@@H](C)CC)C(C)C)[C@@H](C)O [GHRH analog #5, [D-Ala^2, D-Tyr^10, D-Ala^15, Lys^22] hGHRH(1-29)-NH2] (H-Y[dA]DAIFTNS[dY]RKVL[dA]QLSARKKLQDIMSR-NH2)
Calcium excretion: mean (SD) (Baseline): 0.988 (0.916) mmol/m^2/24 h
Calcium/Creatinine ratio: median (Baseline): 0.145
EER Calcium: mean (SD) (Baseline): 0.027 (0.027) mmol/kg/24 h
EER Chloride: mean (SD) (Baseline): 2.213 (0.963) mmol/kg/24 h
EER Phosphate: mean (SD) (Baseline): 0.328 (0.220) mmol/kg/24 h
EER Potassium: mean (SD) (Baseline): 0.839 (0.332) mmol/kg/24 h
EER Sodium: mean (SD) (Baseline): 2.428 (1.134) mmol/kg/24 h
EFER Calcium: mean (SD) (Baseline): 1.933 (1.164) %
EFER Chloride: mean (SD) (Baseline): 3.636 (1.945) %
EFER Phosphate: mean (SD) (Baseline): 35.882 (14.172) %
EFER Potassium: mean (SD) (Baseline): 28.325 (13.618) %
EFER Sodium: mean (SD) (Baseline): 3.068 (1.658) %
Fractional Pi reabsorption rate Pi/GFR: mean (SD) (Baseline): 0.861 (0.291) mmol/ml
Sodium excretion: mean (SD) (Baseline): 89.90 (42.10) mmol/m^2/24 h
Calcium excretion: mean (SD) (Day 28): 1.295 (1.231) mmol/m^2/24 h
Calcium/Creatinine ratio: median (Day 28): 0.195
EER Calcium: mean (SD) (Day 28): 0.036 (0.036) mmol/kg/24 h
EER Chloride: mean (SD) (Day 28): 2.277 (1.028) mmol/kg/24 h
EER Phosphate: mean (SD) (Day 28): 0.273 (0.129) mmol/kg/24 h
EER Potassium: mean (SD) (Day 28): 0.656 (0.315) mmol/kg/24 h
EER Sodium: mean (SD) (Day 28): 2.624 (1.020) mmol/kg/24 h
EFER Calcium: mean (SD) (Day 28): 2.743 (2.157) %
EFER Chloride: mean (SD) (Day 28): 4.156 (2.541) %
EFER Phosphate: mean (SD) (Day 28): 35.968 (12.979) %
EFER Potassium: mean (SD) (Day 28): 26.766 (18.120) %
EFER Sodium: mean (SD) (Day 28): 3.359 (1.156) %
Fractional Pi reabsorption rate Pi/GFR: mean (SD) (Day 28): 0.829 (0.211) mmol/ml
Sodium excretion: mean (SD) (Day 28): 96.70 (37.30) mmol/m^2/24 h
Calcium excretion: adjusted difference [1]: −0.10 mmol/m^2/24 h
EER Calcium: adjusted difference [1]: −0.002 mmol/kg/24 h
EER Chloride: adjusted difference [1]: −0.136 mmol/kg/24 h
EER Phosphate: adjusted difference [1]: 0.020 mmol/kg/24 h
EER Potassium: adjusted difference [1]: −0.086 mmol/kg/24 h
EER Sodium: adjusted difference [1]: −0.020 mmol/kg/24 h
EFER Calcium: adjusted difference [1]: −0.48%
EFER Chloride: adjusted difference [1]: −1.13%
EFER Phosphate: adjusted difference [1]: −3.64%
EFER Potassium: adjusted difference [1]: −7.93%
Fractional Pi reabsorption rate Pi/GFR: adjusted difference [1]: -0.00006 mmol/mL
Sodium excretion: adjusted difference [1]: −1.18 mmol/m^2/24 h
Calcium/Creatinine ratio: ratio (ratio of means) [2]: 0.82
EFER Sodium: ratio (ratio of means) [2]: 0.79
Calcium excretion: mean difference between groups (in vivo): −0.10 mmol/m^2/24 h
Calcium:creatinine ratio: ratio of means (in vivo): 0.82
EER chloride: mean difference between groups (in vivo): −0.136 mmol/kg/24 h
EER phosphate: mean difference between groups (in vivo): 0.020 mmol/kg/24 h
EER potassium: mean difference between groups (in vivo): −0.086 mmol/kg/24 h
EER sodium: mean difference between groups (in vivo): −0.020 mmol/kg/24 h
EFER chloride: mean difference between groups (in vivo): −1.13%
EFER phosphate: mean difference between groups (in vivo): −3.64%
EFER potassium: mean difference between groups (in vivo): −7.93%
EFER sodium: ratio of means (in vivo): 0.79
Electrolyte excretion rate (EER) calcium: mean difference between groups in change baseline to Day 28 (in vivo): −0.002 mmol/kg/24 h
Electrolyte fractional excretion rate (EFER) calcium: mean difference between groups (in vivo): −0.48%
Fractional Pi reabsorption rate (Pi/GFR): mean difference between groups (in vivo): -0.000059 mmol/mL
Sodium excretion: mean difference between groups (in vivo): −1.18 mmol/m^2/24 h
Fractional Pi reabsorption rate (Pi/GFR): mean difference between groups (in vivo, listed as GHRH(1-29)NH2 synthetic analog): -0.00006 mmol/mL
